Measured values as given in patent US20100036088A1, “Selective poly-N-substituted glycine antibiotics” (priority 2008, published 2010).
≈ marks a conversion by molar mass, not a printed value. Numbered stars: 1 amine (or outer) side, 2 acyl side, 3 side chain; on linkers, the order of the positions; unused ones are H or OH. Square brackets hold non-standard residues; d marks the D form. Peptide text beside a SMILES is read from it. X1 = CC(C)[C@H](C)N(CC(=O)[*:2])[*:1]; Nspe = C[C@H](NCC(=O)O)c1ccccc1; Nlys = NCCCCNCC(=O)O

How the values were obtained:
Type in all cases: cell-based
human erythrocytes = experiment: Hemolysis assay
Procedure, shortened: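 Peptoid serial dilutions in PBS pH 7.4 were combined with an equal volume of 20 vol % washed human red cells (heparinised blood) for 1 h at 37 °C. After dilution and pelleting at 1200 g, released haemoglobin in supernatant was read at A350, scaled between PBS and 0.2 vol % Triton X-100 controls.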

[1] = test system: Enterobacter aerogenes ATCC 35029
Procedure: (§1) Antibacterial assays. MICs were determined according to CLSI M7-A6 protocols in a 96-well microtiter plate. In test wells, 50 μL bacterial inoculum (5×10^5 CFU/ml) in Mueller-Hinton broth (MHB) was added to 50 μL peptoid solution in MHB (prepared by 1:2 serial dilutions). Positive controls contained 50 μL inoculum and 50 μL MHB without peptoid. […] MIC values reported were reproducible between three independent experimental replicates, each consisting of two parallel trials. Broad-spectrum antimicrobial susceptibility testing was performed against BSL2 pathogens by Nova Biologicals, Inc. (Conroe, Tex.).
(§2) Broad-spectrum antibacterial assays. MICs of compounds were determined by microdilution procedure in Mueller-Hinton broth (MHB) in accordance with CLSI M7-A6 protocols in a manner similar to that described for the screen antibacterial assays. Inoculated microtiter plates were incubated at 35° C. for 24 hours prior to the result being recorded. Four ATCC strains that were used as standards are recommended by CLSI: Pseudomonas aeruginosa ATCC 27853, Escherichia coli ATCC 25922, Staphylococcus aureus ATCC 29213 and Enterococcus faecalis ATCC 29212. Other strains from the ATCC collection include Proteus vulgaris ATCC 49132, Proteus mirabilis ATCC 35659, Klebsiella pneumoniae ATCC 33495, Enterobacter aerogenes ATCC 35029 and Serratia marcescens ATCC 13880. S. aureus NRS100 (COL) is a well characterized methicillian-resistant S. aureus (MRSA) strain. The strains S. aureus VAN1 and S. aureus VAN2, vancomycin-resistant MRSA strains that were isolated in Michigan and Pennsylvania, were the first vancomycin-resistant strains clinically isolated. S. aureus NRS119 and S. aureus NRS120 are linezolid-resistant isolates from the Network on Antimicrobial Resistance in S. aureus (NARSA) collection. E. faecalis 99 and E. faecium 106 are vancomycin-resistant enterococcal strains.

Enterococcus faecalis 99 = test system: Enterococcus faecalis 99
Procedure: as §1, §2

[2] = test system: Enterococcus faecalis ATCC 29212
Procedure: as §1, §2

Enterococcus faecium 106 = test system: Enterococcus faecium 106
Procedure: as §1, §2

[3] = test system: Escherichia coli ATCC 25922
Procedure: as §1, §2

[4] = test system: Klebsiella pneumoniae ATCC 33495
Procedure: as §1, §2

[5] = test system: Proteus mirabilis ATCC 35659; details: ATCC 35659
Procedure: as §1, §2

[6] = test system: Proteus vulgaris ATCC 49132
Procedure: as §1, §2

[7] = test system: Pseudomonas aeruginosa ATCC 27853
Procedure: as §1, §2

[8] = test system: Serratia marcescens ATCC 13880; details: ATCC 13880
Procedure: as §1, §2

[9] = test system: Staphylococcus aureus ATCC 29213
Procedure: as §1, §2

[10] = test system: Staphylococcus aureus NRS100 (COL)
Procedure: as §1, §2

[11] = test system: Staphylococcus aureus NRS119
Procedure: as §1, §2

[12] = test system: Staphylococcus aureus NRS120
Procedure: as §1, §2

[13] = test system: Staphylococcus aureus VAN1
Procedure: as §1, §2

[14] = test system: Staphylococcus aureus VAN2
Procedure: as §1, §2

[15] = Table 7A, MRSA, vancomycin-resistant

Row | SMILES | HD10 (human erythrocytes) [µM] | HD50 (human erythrocytes) [µM] | MIC Enterobacter aerogenes ATCC 35029 [1] [µM] | MIC Enterococcus faecalis 99 (Enterococcus faecalis 99) [µM] | MIC Enterococcus faecalis ATCC 29212 [2] [µM] | MIC Enterococcus faecium 106 (Enterococcus faecium 106) [µM] | MIC Escherichia coli ATCC 25922 [3] [µM] | MIC Klebsiella pneumoniae ATCC 33495 [4] [µM] | MIC P. mirabilis ATCC 35659 [5] [µg/mL] | MIC Proteus mirabilis ATCC 35659 [5] [µM] | MIC Proteus vulgaris ATCC 49132 [6] [µM] | MIC Pseudomonas aeruginosa ATCC 27853 [7] [µM] | MIC S. marcescens ATCC 13880 [8] [µg/mL] | MIC Serratia marcescens ATCC 13880 [8] [µM] | MIC Staphylococcus aureus ATCC 29213 [9] [µM] | MIC Staphylococcus aureus NRS100 (COL) [10] [µM] | MIC Staphylococcus aureus NRS119 [11] [µM] | MIC Staphylococcus aureus NRS120 [12] [µM] | MIC Staphylococcus aureus VAN1 [13] [µM] | MIC Staphylococcus aureus VAN2 [14] [µM] | other results
1 | CC(C)[C@H](C)N(CC(=O)N(CC(=O)N(CCCCN)CC(=O)N(CC(=O)N(CC(=O)N(CCCCN)CC(=O)N(CC(=O)N(CC(=O)N(CCCCN)CC(=O)N(CC(=O)N(CC(N)=O)[C@@H](C)c1ccccc1)[C@@H](C)C(C)C)[C@@H](C)c1ccccc1)[C@@H](C)C(C)C)[C@@H](C)c1ccccc1)[C@@H](C)C(C)C)[C@@H](C)c1ccccc1)C(=O)CNCCCCN [1-Nsdp2,5,8,11, H-(Nlys-Nsdp-Nspe)4-NH2] (H-[Nlys][X1][Nspe][Nlys][X1][Nspe][Nlys][X1][Nspe][Nlys][X1][Nspe]-NH2) | 111 | > 200 | 19.0 (≈ 32 µg/mL) | 38.0 (≈ 64 µg/mL) | 4.8 (≈ 8.08 µg/mL) | 2.4 (≈ 4.04 µg/mL) | 4.8 (≈ 8.08 µg/mL) | 4.8 (≈ 8.08 µg/mL) | >128 | >76.0 | 19.0 (≈ 32 µg/mL) | 9.5 (≈ 16 µg/mL) | >128 | >76.0 | 4.8 (≈ 8.08 µg/mL) | 4.8 (≈ 8.08 µg/mL) | 9.5 (≈ 16 µg/mL) | 9.5 (≈ 16 µg/mL) | 4.8 (≈ 8.08 µg/mL) | 4.8 (≈ 8.08 µg/mL) | MIC E. aerogenes ATCC 35029 ([1]; Table 7A): 32 µg/mL (≈ 19 µM); MIC E. faecalis 99 (Enterococcus faecalis 99; Table 7A): 64 µg/mL (≈ 38 µM); MIC E. faecalis ATCC 29212 ([2]; Table 7A): 8 µg/mL (≈ 4.75 µM); MIC E. faecium 106 (Enterococcus faecium 106; Table 7A): 4 µg/mL (≈ 2.38 µM); MIC E. coli ATCC 25922 ([3]; Table 7A): 8 µg/mL (≈ 4.75 µM); MIC K. pneumoniae ATCC 33495 ([4]; Table 7A): 8 µg/mL (≈ 4.75 µM); MIC P. vulgaris ATCC 49132 ([6]; Table 7A): 32 µg/mL (≈ 19 µM); MIC P. aeruginosa ATCC 27853 ([7]; Table 7A): 16 µg/mL (≈ 9.51 µM); MIC S. aureus ATCC 29213 ([9]; Table 7A): 8 µg/mL (≈ 4.75 µM); MIC S. aureus NRS100 (COL) ([10]; Table 7A, MRSA): 8 µg/mL (≈ 4.75 µM); MIC S. aureus NRS119 ([11]; Table 7A, linezolid-resistant): 16 µg/mL (≈ 9.51 µM); MIC S. aureus NRS120 ([12]; Table 7A, linezolid-resistant): 16 µg/mL (≈ 9.51 µM); MIC S. aureus VAN1 [13, 15]: 8 µg/mL (≈ 4.75 µM); MIC S. aureus VAN2 [14, 15]: 8 µg/mL (≈ 4.75 µM)
2 | C[C@@H](c1ccccc1)N(CC(N)=O)C(=O)CN(C(=O)CN(CCCCN)C(=O)CN(C(=O)CN(C(=O)CN(CCCCN)C(=O)[C@@H]1CCCN1C(=O)CN(C(=O)CN(CCCCN)C(=O)CN(C(=O)CN(C(=O)CNCCCCN)[C@@H](C)c1ccccc1)[C@@H](C)c1ccccc1)[C@@H](C)c1ccccc1)[C@@H](C)c1ccccc1)[C@@H](C)c1ccccc1)[C@@H](C)c1ccccc1 [1-Pro6, H-Nlys-Nspe-Nspe-Nlys-Nspe-L-Pro-(Nlys-Nspe-Nspe)2-NH2] (H-[Nlys][Nspe][Nspe][Nlys][Nspe]P[Nlys][Nspe][Nspe][Nlys][Nspe][Nspe]-NH2) | 83 | > 200 | 72.9 (≈ 128 µg/mL) | 36.5 (≈ 64.1 µg/mL) | 4.6 (≈ 8.07 µg/mL) | 2.3 (≈ 4.04 µg/mL) | 9.1 (≈ 16 µg/mL) | 9.1 (≈ 16 µg/mL) | >128 | >72.9 | 18.2 (≈ 31.9 µg/mL) | 18.2 (≈ 31.9 µg/mL) | >128 | >72.9 | 4.6 (≈ 8.07 µg/mL) | 4.6 (≈ 8.07 µg/mL) | 9.1 (≈ 16 µg/mL) | 9.1 (≈ 16 µg/mL) | 4.6 (≈ 8.07 µg/mL) | 4.6 (≈ 8.07 µg/mL) | HD10 (10% hemolytic dose) (human erythrocytes; red cells of human, 1 h): 63 µM; HD50 (50% hemolytic dose) (human erythrocytes; red cells of human, 1 h): > 110 µM
